One data set deals with BV173 cells. In words: Clonogenic assay of tissues of leukemic SCID mice. The data set is classed as in vivo, SCID mice (human leukemic cells). The protocol:
A second assay for leukemic disease comprised a clonogenic assay in semisolid medium. […] By contrast, BV173 cells formed numerous, rapidly growing colonies. To rule out the possibility that the presence of BV173 cells permitted the growth of murine progenitors, mixing experiments were carried out.
(§1) To determine whether synthetic phosphorothioate oligodeoxynucleotides targeted against the bcr-abl junction of […] cells would modify the disease process in SCID mice. SCID mice were injected with 10^6 BV173 cells. The mice then received 1 mg of sense (ATCAATAAGG AAGCCCTTCAGCG, SEQ ID NO:34) or antisense ([…] ATTGAT, SEQ ID NO:29) b2/a2 bcr-abl phosphorothioate oligodeoxynucleotides (pyrogen leven <1 Eu/mg; 0.2 ml in Iscove modified Dulbecco medium in 5-10 seconds) intravenously for each of 9 consecutive days, beginning either 7 or 21 days after introducing 10^6 BV173 cells. Control mice received the diluent (iscove's modified Dulbecco medium) only. These time points approximate distinct disease stages in humans.
10^5 cells were plated in duplicate in 35×10 mm tissue culture dishes (Nunc, Inc., Naperville, Ill.) in HCC-4230 medium (Terry Fox Lab., Vancouver, Canada) supplemented with 2.5 mM L-glutamine, and allowed to grow for 12 days. Plates were scanned with an inverted microscope and total colony number was determined. The results are shown in FIG. 9 (C, untreated mouse; S, sense-treated mouse, AS, antisense-treated mouse).

Data set [1] deals with BV173 cells (cALL antigen (CALLA)-positive cells). In words: Immunofluorescence / flow cytometry of CALLA-positive cells in tissues of leukemic SCID mice. The format is in vivo, SCID mice (human leukemic cells). The protocol: A first assay comprised an immunofluorescence analysis of cALL antigen (CALLA)-positive cells. All BV173 cells but not normal murine hematopoietic cells express this antigen (assay sensitivity=10^-2). Single cell suspensions were prepared for flow cytometry analysis from peripheral blood, spleen and bone marrow cells of the leukemic SCID mice by centrifugation on a lymphocyte-M gradient (Cedarlane Labs, Ltd., Ontario, Canada). Cells (1×10^5) were stained with the FITC-conjugated mouse anti-CALLA monoclonal antibody (Becton-Dickinson Immunocytometry Systems, San Jose, Calif.) to human CD10 antigen. After staining, cells were washed and analyzed by flow cytometry using the Epics Profile Analyzer (Coulter Electronic).
as §1
A general note: Flow cytometry measures light scatter and fluorescence of single cells or particles in a stream.

The mark [2] stands for this setting: 1 mg/day i.v. x9 from day +7, killed 26 days after last treatment (6 weeks).
[3] abbreviates: 1 mg/mouse/day x9 from day +21, 26 days after treatment (8 weeks).
Where [4] appears, read: 1 mg/day i.v. x9 from day +7, 26 days after last treatment (6 weeks).
Where [5] appears, read: from day +21, 1 mg/day x9, 26 days after treatment (8 weeks).

Where “and” joins values, the source holds several entries; their conditions need not be identical. Equal entries are not always repeated.

Here are results for 1 substance from patent publication US5652222A, “Selective inhibition of leukemic cell proliferation by bcr-abl antisense oligonucleotides” (Temple University-of The Commonwealth System of Higher …, priority 1993, dated 1997).

Take “SEQ ID NO:34: phosphorothioate sense sequence ATCAATAAGGAAGCCCTTCAGCG (23-mer b2a2 sense) (sense ATCAATAAGGAAGCCCTTCAGCG; all phosphorothioate, sugars by position and methylation of C not given here)”: the “leukemic colonies, bone marrow and spleen” value in the data set on BV173 cells (setting [2]) is on record as “numerous leukemic colonies”. Besides, in the data set on BV173 cells (setting [2]), the “leukemic colonies, peripheral blood leukocytes” value is reported as “A few colonies”. Moreover, the “leukemic colonies, bone marrow” value was determined as 380±25 colonies in the data set on BV173 cells (1 mg/mouse/day i.v. x9 from day +7, killed 12 days after last treatment (4 weeks), untreated 353±52); 668.5±59.1 colonies in the data set with BV173 cells (1 mg/mouse/day x9 from day +21, 12 days after last treatment (6 weeks), untreated 575.5±83.8); 839.5±41.7 colonies in the data set with BV173 cells (setting [3]). For the same substance, in the data set on BV173 cells (1 mg/mouse/day x9 from day +21, 12 days after last treatment (6 weeks), untreated 11.0±8.5), the “leukemic colonies, peripheral blood mononuclear cells” value worked out at 14.5±4.9 colonies. Moreover, the “leukemic colonies, spleen” value is reported as 116.0±29.7 colonies with BV173 cells (1 mg/mouse/day x9 from day +21, 12 days after last treatment (6 weeks), untreated 80.5±12.0) and 548.5±128.0 colonies with BV173 cells (setting [3]). Further, in the data set with BV173 cells (setting [3]), the “leukemic colonies, peripheral blood” value was 51.0±41.7 colonies and 51.0±14.1 colonies. The “CALLA+ cells, bone marrow” value in data set [1] (1 mg/day i.v. x9 from day +7, 12 days after last treatment (4 weeks)) was “detected in bone marrow of control and sense-treated animal”; in data set [1] (setting [4]) it was 16.8±1.8%; in data set [1] (from day +21, 1 mg/day x9, 12 days after last treatment (6 weeks), control 17.7±1.8), 10.0±0.5%; in data set [1] (setting [5]) it was 23.9±5.0%. Further, the “CALLA+ cells, peripheral blood” value in data set [1] (setting [4]) was 1.9±0.2%; in data set [1] (from day +21, 1 mg/day x9, 12 days after last treatment (6 weeks), control 1.0±0.1), 0.9±0.1; in data set [1] (setting [5]), 2.0±0.3%. Also, the “CALLA+ cells, spleen” value is reported as 4.1±0.2% in data set [1] (setting [4]); 1.9±0.8% in data set [1] (from day +21, 1 mg/day x9, 12 days after last treatment (6 weeks), control 1.9±0.1); 9.9±1.8% in data set [1] (setting [5]).
